In ChEMBL document CHEMBL1201862, “PubChem BioAssay data set” (2004):
Blank lines part the entries; values can stand above or below the molecule they belong to. Active and inactive are the calls of the source. For most assays here, no stated cut-off is given here; in the data, actives have a measured EC50 and inactives only a lower limit.

What was measured:
[1] = Luminescence Cell-Based Dose Retest to Confirm Inhibitors of Cancer Stem Cells. [Related pubchem assays (depositor defined):AID2717, AID2721]; assay type: functional; conditions: Homo sapiens
[2] = Trypanosoma cruzi growth suppression in host cells – NIH3T3 host cells, beta-gal luminescence, confirmation (AID 2044); assay type: functional, cell-based;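 further: intracellular parasites grown in NIH/3T3 mouse fibroblasts as host cells; luminescent beta-galactosidase reporter signal from transgenic T. cruzi replicating inside host cells; inhibitors lower the luminescence signal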
[3] = NIH3T3 cell viability loss – ATP luminescence, mouse fibroblasts, counter-screen, dose response (AID 2010); assay type: functional, cell-based;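 further: cells exposed to compound for about 90 hours before reading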
[4] = molecular target: T1, Heat shock factor protein 1 (Mus musculus, UniProt P38532); test: decrease of HSF1-responsive luciferase luminescence – cell-based, NIH3T3, dose retest, confirmation (AID 2382); assay type: functional;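 further: NIH3T3 fibroblasts with HSF1-driven luciferase reporter stressed by proteasome inhibitor MG132; luminescence from HSF1-driven luciferase expression after 8 hours of MG132 stress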
T1 sequence (P38532 whole entry): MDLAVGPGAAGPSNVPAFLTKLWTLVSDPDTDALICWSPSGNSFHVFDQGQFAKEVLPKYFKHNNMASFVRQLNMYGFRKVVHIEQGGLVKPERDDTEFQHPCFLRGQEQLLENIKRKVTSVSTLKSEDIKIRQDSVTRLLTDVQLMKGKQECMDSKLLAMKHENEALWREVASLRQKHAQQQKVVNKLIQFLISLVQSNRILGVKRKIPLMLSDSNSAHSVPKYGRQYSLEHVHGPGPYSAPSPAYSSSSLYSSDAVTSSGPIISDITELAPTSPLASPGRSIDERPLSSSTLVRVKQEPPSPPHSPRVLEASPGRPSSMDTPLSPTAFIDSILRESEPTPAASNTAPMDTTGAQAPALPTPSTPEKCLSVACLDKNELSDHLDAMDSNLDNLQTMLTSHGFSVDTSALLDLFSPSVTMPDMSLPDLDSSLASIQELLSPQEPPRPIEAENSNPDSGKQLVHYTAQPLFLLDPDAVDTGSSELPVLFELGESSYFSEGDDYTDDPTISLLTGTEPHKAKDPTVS

[5] = molecular target: T2, Corticotropin-releasing factor receptor 2/Corticotropin-releasing factor-binding protein (Homo sapiens, UniProt P24387+Q13324); test: activators of CRF receptor 2 with binding protein – uHTS hits, confirmation (AID 602473); assay type: functional; conditions: read-out: EC50_Mean
T2 sequence (Q13324 whole entry): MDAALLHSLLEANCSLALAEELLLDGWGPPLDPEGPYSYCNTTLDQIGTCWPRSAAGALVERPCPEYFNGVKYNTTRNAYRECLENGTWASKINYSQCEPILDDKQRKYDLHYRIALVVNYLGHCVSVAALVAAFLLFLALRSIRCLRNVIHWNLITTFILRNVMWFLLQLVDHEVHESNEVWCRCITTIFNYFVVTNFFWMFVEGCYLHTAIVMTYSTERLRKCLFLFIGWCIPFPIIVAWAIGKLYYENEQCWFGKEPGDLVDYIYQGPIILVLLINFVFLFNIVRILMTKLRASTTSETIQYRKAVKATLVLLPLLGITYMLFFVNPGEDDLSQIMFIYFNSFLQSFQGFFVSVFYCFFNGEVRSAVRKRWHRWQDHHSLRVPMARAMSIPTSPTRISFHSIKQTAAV
T2 sequence (P24387 whole entry): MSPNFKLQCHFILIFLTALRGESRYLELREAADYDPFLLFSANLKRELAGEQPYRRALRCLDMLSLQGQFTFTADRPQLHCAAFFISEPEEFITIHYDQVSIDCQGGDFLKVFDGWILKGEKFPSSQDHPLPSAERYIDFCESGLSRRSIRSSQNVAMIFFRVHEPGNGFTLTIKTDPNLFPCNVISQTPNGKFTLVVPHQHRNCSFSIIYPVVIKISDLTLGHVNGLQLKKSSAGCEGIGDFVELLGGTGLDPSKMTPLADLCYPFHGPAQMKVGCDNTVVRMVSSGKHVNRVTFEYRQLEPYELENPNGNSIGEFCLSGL

[6] = viability of HCT116 lacking mutant beta-catenin – cell-based, human colon tumor, dose response (AID 1045); assay type: functional;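 further: HCT116 colon tumor cells with beta catenin knocked out; cells exposed to compound for 60 hours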
[7] = viability of PTEN-deleted HCT116 cells – cell-based, HCT116 PTEN knockout, dose response (AID 1047); assay type: functional;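 further: HCT116 colon tumor cells with PTEN knocked out; cells exposed to compound for 60 hours before readout; potency for loss of cell viability measured by luminescence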
[8] = system: Streptococcus sp. 'group A'; test: Streptococcus pyogenes SK(-)GAS viability under kanamycin – luminescence, BacTiterGlo, confirmation, counter-screen for streptokinase expression inhibitor project, dose response (AID 1900); assay type: functional, organism-based
[9] = system: Streptococcus; test: GAS UMAA2166 growth inhibition – luminescence, BacTiterGlo, counter-screen for streptokinase expression inhibitor project, dose response (AID 1915); assay type: functional, organism-based;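 further: potency for reduction of bacterial viability or growth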
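Wherever AC50 is given: cells exposed to compound for roughly 70 hours or longer before luminescence read.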

SMILES: O=c1cc(N2CCCCC2)c(-c2ccccc2)nn1Cc1cccc(Cl)c1
AC50 [1]: 3.6 µM (active)

SMILES: Cc1cccc(NC(=O)CSCC(=O)Nc2cc(Cl)ccc2N2CCN(C)CC2)c1
EC50 [2]: 2.41 µM (active) | EC50 [3]: > 60 µM (not active)

SMILES: Clc1cccc(Nc2nc(-c3cccnc3)cs2)c1
EC50 [2]: 1.23 µM (active) | EC50 [3]: > 60 µM (not active)

EC50 [4]: > 195 µM (not active)
SMILES: C=CCOCCN(CCOCC=C)C1=NS(=O)(=O)c2ccccc21

SMILES: CN(C)c1nc(NCc2ccccc2)nc(SCC(=O)Nc2ccc(Cl)c(Cl)c2)n1
EC50 [2]: 2.15 µM (active) | EC50 [3]: > 60 µM (inconclusive)

EC50 [4]: > 195 µM (not active)
SMILES: CCc1cc2c(NCCC(=O)O)nc(C)nc2s1

EC50 [4]: 169 µM (active)
SMILES: CN(C)c1ccc(CNc2ccc3c(c2)ncn3C(C)(C)C)cc1

EC50 [4]: > 195 µM (not active)
SMILES: CC1CCN(CC(=O)NC2CCCCC2)CC1

EC50 [4]: > 195 µM (not active)
SMILES: COc1ccc2nc(Cl)c(C#N)cc2c1

SMILES: O=C(CCc1ccccc1)Nc1ncc([N+](=O)[O-])s1
EC50 [2]: 0.951 µM (active) | EC50 [3]: > 60 µM (not active)

EC50 [5]: 7.63 µM (active)
SMILES: O=C(CCCNC1=NS(=O)(=O)c2ccccc21)OCC(=O)c1ccc(F)c(F)c1

EC50 [4]: > 195 µM (not active)
SMILES: COc1ccc(Cl)cc1NC(=O)CN(C)C(=O)Cn1cnc2c1c(=O)n(C)c(=O)n2C

SMILES: O=[N+]([O-])c1cn(-c2nc(-c3ccco3)cc(C(F)(F)F)n2)cn1
EC50 [2]: 0.723 µM (active) | EC50 [3]: > 30 µM (not active)

SMILES: Cc1cccc(NC(=O)c2cc(-c3cc(C)cc(C)c3O)[nH]n2)c1
AC50 [1]: 2.86 µM (active)

SMILES: COc1ccc2c(c1)C=C(CN1CCN(Cc3ccccc3C)C(CCO)C1)CO2 (stereo not drawn)
EC50 [2]: 0.391 µM (active) | EC50 [3]: > 30 µM (not active)

SMILES: COc1cc(OC)c(OC)cc1CN1CCCC(C(=O)c2ccccc2SC)C1 (stereo not drawn)
EC50 [2]: 0.138 µM (active) | EC50 [3]: > 60 µM (not active)

SMILES: COC(=O)NC(=S)Nc1ccc(Oc2ccc(Cl)cc2Cl)c(Cl)c1
EC50 [2]: 1.83 µM (active) | EC50 [3]: > 60 µM (not active)

EC50 [4]: > 195 µM (not active)
SMILES: CCOC(=O)Cn1c(COc2ccccc2OC)[n+](C)c2ccccc21

SMILES: CCOC(=O)c1c(NC(=O)Cc2ccccc2)sc2c1CCN(C)C2
EC50 [2]: 0.109 µM (active) | EC50 [3]: > 60 µM (not active)

SMILES: COc1cc(C2SCC(=O)N2CCCN(C)C)cc(OC)c1OC (stereo not drawn)
EC50 [2]: 0.264 µM (active) | EC50 [3]: > 60 µM (not active)

SMILES: COc1ccc(CN2CCN(Cc3ccc(C)cc3)CC2)c(OC)c1
EC50 [2]: 0.22 µM (active) | EC50 [3]: > 60 µM (not active)

EC50 [4]: > 195 µM (not active)
SMILES: COc1ccccc1-n1c(S)nnc1CNC(=O)c1cccc([N+](=O)[O-])c1C

SMILES: COc1ccc(N2CCN(c3ncnc4scc(-c5ccc(C)cc5)c34)CC2)cc1
EC50 [2]: 2.69 µM (active) | EC50 [3]: > 60 µM (not active)

SMILES: COc1ccc(CN(C(=O)Cc2cccs2)C(C(=O)NC2CCCC2)c2ccncc2)cc1 (stereo not drawn)
EC50 [2]: 2.22 µM (active) | EC50 [3]: 50.8 µM (active)

EC50 [4]: > 195 µM (not active)
SMILES: O=C(CCCCn1c(=O)[nH]c2ccsc2c1=O)NCc1cccnc1

SMILES: Cc1ccc(C(C(=O)NCc2ccco2)N(C(=O)CNC(=O)c2cccs2)c2c(C)cccc2C)cc1 (stereo not drawn)
EC50 [6]: 8.32 µM (active) | EC50 [7]: 6.55 µM (active)

SMILES: O=C(Nc1ccc(Cl)c(Cl)c1)Nc1cc(S(=O)(=O)N2CCOCC2)ccc1N1CCCC1
EC50 [6]: 20.3 µM (active) | EC50 [7]: 22.5 µM (active)

SMILES: COc1ccc(-c2nc3ccccc3c(=O)n2-c2cccnc2)cc1
EC50 [4]: > 195 µM (not active)

SMILES: CN(C(=O)CSc1nc(C2CC2)nc2ccccc12)c1nc(-c2ccccc2)cs1
EC50 [6]: 12.7 µM (active) | EC50 [7]: 14.7 µM (active)

SMILES: Cc1ccc(-n2c(SCC(=O)N3c4ccccc4Sc4ccccc43)nnc2-c2ccncc2)cc1
EC50 [2]: 0.345 µM (active) | EC50 [3]: > 60 µM (not active)

SMILES: CCOC(=O)c1c(NC(=O)c2nn(CC)cc2Br)sc2c1CCCCC2
AC50 [1]: 1.12 µM (active)

EC50 [4]: > 195 µM (not active)
SMILES: CCN(Cc1ccccc1)C(=O)C1CCN(Cc2sccc2C)CC1

EC50 [4]: 41.2 µM (active)
SMILES: Nc1ccc(C23CC4CC(CC(O)(C4)C2)C3)cc1

EC50 [4]: > 195 µM (not active)
SMILES: CCn1c(=O)c2c3c(sc2n2cnnc12)CCC3

SMILES: O=C(Cc1csc(Nc2nc(S)nc3ccccc23)n1)NCCCN1CCN(c2cccc(Cl)c2)CC1
EC50 [8]: 8.14 µM (active) | EC50 [9]: > 150 µM (not active)

SMILES: COc1ccc(C(=O)C2CCCN(C3CSCCSC3)C2)c(OC)c1 (stereo not drawn)
AC50 [1]: 0.939 µM (active)

EC50 [4]: > 195 µM (not active)
SMILES: Cn1c(NC(=O)c2ccccc2NC(=O)C(C)(C)C)nc2ccccc21

SMILES: Cc1cccc(Oc2cc(NC(=O)Cn3cnc([N+](=O)[O-])n3)cc([N+](=O)[O-])c2)c1
EC50 [6]: 28.7 µM (active) | EC50 [7]: 36.1 µM (active)

SMILES: CC1CC(C)CN(S(=O)(=O)c2ccc(C(=O)Nc3nnc(C4CC4)o3)cc2)C1 (stereo not drawn)
EC50 [8]: 1.25 µM (active) | EC50 [9]: 5.33 µM (active)

SMILES: Cc1cc(C)nc(NC(=NC(=O)C(C)(C)C)NCCc2c[nH]c3ccccc23)n1
EC50 [2]: 2.34 µM (active) | EC50 [3]: > 60 µM (not active)

SMILES: O=C(c1cccc([N+](=O)[O-])c1)N1CCN(c2cccc(Cl)c2)CC1
EC50 [6]: 5.22 µM (active) | EC50 [7]: 4.8 µM (active)

EC50 [4]: > 195 µM (not active)
SMILES: CCN1CC2([N+](=O)[O-])C=CC(=O)C([N+](=O)[O-])(C1)C2CC(=O)c1ccccc1 (stereo not drawn)

SMILES: CC(NC(=O)c1cccnc1)C(c1cccs1)N1CCOCC1 (stereo not drawn)
EC50 [2]: > 60 µM (not active) | EC50 [3]: > 60 µM (not active)

EC50 [4]: 12.4 µM (active)
SMILES: Cc1nnsc1[S+]([O-])c1ccc(Cl)c(Cl)c1 (stereo not drawn)

SMILES: Cc1cc(Br)c(NC(=O)CN2CC=C(c3ccccc3)CC2)c(Br)c1
EC50 [2]: 0.255 µM (active) | EC50 [3]: > 60 µM (not active)

SMILES: COc1cc2c(cc1OC)C(c1cc3cccc(C)c3nc1O)N(C(=O)c1ccco1)CC2 (stereo not drawn)
EC50 [2]: 3.44 µM (active) | EC50 [3]: 10.5 µM (active)

SMILES: Cc1cccc(C)c1N=C(S)N(Cc1ccccc1)Cc1cccnc1
EC50 [2]: 1.46 µM (active) | EC50 [3]: > 60 µM (not active)

SMILES: COc1ccc(C2=NN(CN3C(=O)C(=O)c4ccccc43)C(c3ccc(Br)cc3)C2)cc1 (stereo not drawn)
EC50 [6]: 26.2 µM (active) | EC50 [7]: 27.3 µM (active)

EC50 [5]: 5.4 µM (active)
SMILES: CC1(c2ccc(OC(F)F)cc2)NC(=O)N(CC(=O)c2ccc3c(c2)OCO3)C1=O (stereo not drawn)

EC50 [5]: > 53 µM (inactive)
SMILES: O=C(Nc1cc(C(F)(F)F)ccc1Cl)c1cccnc1

SMILES: CC1(C)C(=O)N(c2ccccc2)C1c1ccccc1O (stereo not drawn)
AC50 [1]: 2.95 µM (active)

EC50 [5]: 2.05 µM (active)
SMILES: CCCNC(=O)Cn1c(=O)/c(=C/c2ccc(-c3ccc([N+](=O)[O-])cc3)o2)s/c1=C\C(=O)C(C)(C)C

SMILES: CC1CC1C(=O)N1CCN(S(=O)(=O)c2cc(C(F)(F)F)cc(C(F)(F)F)c2)CC1 (stereo not drawn)
AC50 [1]: 2.76 µM (active)

EC50 [5]: > 53 µM (inactive)
SMILES: CCCCCn1nc(C)c(/C=N\NC(=O)c2cc(C)oc2C)c1C

SMILES: Cc1cccc(C)c1OCc1cc(C(=O)N2C[C@@H]3C[C@H]4C[C@@H](C3)C[C@@H]2C4)no1
AC50 [1]: 1.27 µM (active)

SMILES: CCC(O)(CC)C(=O)N/N=C/c1cc(Br)cc(Br)c1O
AC50 [1]: 12.6 µM (active) | EC50 [8]: 2.9 µM (active) | EC50 [9]: 3.08 µM (active)

SMILES: O=C(N/N=C/c1cc(Br)cc(Br)c1O)c1cccc(S(=O)(=O)N2CCOCC2)c1
EC50 [8]: 0.765 µM (active) | EC50 [9]: 3.91 µM (active)

EC50 [4]: > 195 µM (not active)
SMILES: Cc1cc(=O)oc2cc(OCC#N)ccc12
